In ChEMBL document CHEMBL1201862, “PubChem BioAssay data set” (2004):
The source made the active and inactive calls.

Assays:
[1] = cells; assay type: functional
[2] = biological target: T1, Sentrin-specific protease 8 (Homo sapiens, UniProt Q96LD8); assay type: functional;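 further: luminescence read-out of SENP8 inhibition, dose-response confirmation following an ultra-high-throughput screen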
T1 sequence (Q96LD8 whole entry): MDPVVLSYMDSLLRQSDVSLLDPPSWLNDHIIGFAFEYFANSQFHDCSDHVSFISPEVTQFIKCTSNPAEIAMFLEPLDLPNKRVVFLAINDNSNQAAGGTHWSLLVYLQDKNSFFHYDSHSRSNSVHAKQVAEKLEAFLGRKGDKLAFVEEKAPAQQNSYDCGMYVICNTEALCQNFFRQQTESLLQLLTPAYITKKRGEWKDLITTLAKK

[3] = biological target: Caspase-9 (Homo sapiens, UniProt P55211); assay: inhibitors of purified CASP9 protease – biochemical, fluorescence, plate reader, cherry-picked samples, selectivity assay for caspase-6 inhibitor project, dose response (AID 743293)
Chain of Caspase-9 (P55211 1-315 limits assumed): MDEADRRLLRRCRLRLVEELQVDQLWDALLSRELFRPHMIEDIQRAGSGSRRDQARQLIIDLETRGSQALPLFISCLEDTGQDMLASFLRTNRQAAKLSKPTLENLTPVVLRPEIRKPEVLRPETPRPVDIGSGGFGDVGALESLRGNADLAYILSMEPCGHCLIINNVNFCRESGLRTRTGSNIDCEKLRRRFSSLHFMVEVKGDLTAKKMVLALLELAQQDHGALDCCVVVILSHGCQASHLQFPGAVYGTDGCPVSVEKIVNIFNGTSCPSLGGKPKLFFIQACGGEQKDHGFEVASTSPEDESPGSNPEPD
Chain of Caspase-9 (P55211 331-416 limits assumed): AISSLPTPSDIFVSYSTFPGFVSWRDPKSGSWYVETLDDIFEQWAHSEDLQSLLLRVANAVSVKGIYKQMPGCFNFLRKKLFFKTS

[4] = biological target: T2, Sentrin-specific protease 6 (Homo sapiens, UniProt Q9GZR1); assay type: functional;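 further: Luminescence-based dose-response confirmatory assay of SENP6 inhibition, following up an ultra-high-throughput screen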
T2 sequence (Q9GZR1 whole entry): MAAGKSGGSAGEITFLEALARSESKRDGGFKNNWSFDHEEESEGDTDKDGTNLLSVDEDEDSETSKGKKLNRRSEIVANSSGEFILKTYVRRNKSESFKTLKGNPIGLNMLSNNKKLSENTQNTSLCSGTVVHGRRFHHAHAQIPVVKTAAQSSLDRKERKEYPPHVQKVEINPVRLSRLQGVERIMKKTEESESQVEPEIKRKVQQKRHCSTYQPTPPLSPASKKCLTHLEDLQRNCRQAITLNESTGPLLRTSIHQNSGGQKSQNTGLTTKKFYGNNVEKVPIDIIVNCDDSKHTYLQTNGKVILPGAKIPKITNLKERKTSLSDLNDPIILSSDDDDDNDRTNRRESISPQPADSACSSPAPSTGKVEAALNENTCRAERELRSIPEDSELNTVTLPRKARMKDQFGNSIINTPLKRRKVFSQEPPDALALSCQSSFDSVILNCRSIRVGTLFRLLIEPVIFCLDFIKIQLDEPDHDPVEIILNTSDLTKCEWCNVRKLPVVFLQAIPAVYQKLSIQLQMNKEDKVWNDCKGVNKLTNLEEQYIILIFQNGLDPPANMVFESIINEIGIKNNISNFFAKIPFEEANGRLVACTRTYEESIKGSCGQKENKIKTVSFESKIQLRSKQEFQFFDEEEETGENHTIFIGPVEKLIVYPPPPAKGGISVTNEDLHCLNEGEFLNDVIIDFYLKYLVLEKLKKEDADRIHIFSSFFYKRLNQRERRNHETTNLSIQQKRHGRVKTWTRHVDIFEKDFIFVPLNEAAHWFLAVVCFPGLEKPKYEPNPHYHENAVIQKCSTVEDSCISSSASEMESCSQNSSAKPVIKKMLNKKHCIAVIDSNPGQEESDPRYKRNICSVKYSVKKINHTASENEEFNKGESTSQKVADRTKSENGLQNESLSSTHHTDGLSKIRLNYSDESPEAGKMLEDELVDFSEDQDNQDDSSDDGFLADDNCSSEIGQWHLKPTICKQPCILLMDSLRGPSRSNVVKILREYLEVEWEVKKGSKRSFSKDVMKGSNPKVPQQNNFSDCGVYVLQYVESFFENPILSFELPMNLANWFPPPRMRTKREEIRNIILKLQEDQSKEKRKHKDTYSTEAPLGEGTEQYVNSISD

[5] = Fluorescence-based biochemical high throughput screening dose response assay to identify inhibitors of Crimean-Congo Hemorrhagic Fever (CCHF) viral ovarian tumor domain protease (vOTU): Pep-AMC substrate.
[6] = biological target: Induced myeloid leukemia cell differentiation protein Mcl-1 (Homo sapiens, UniProt Q07820); assay type: functional
Chain of Induced myeloid leukemia cell differentiation protein Mcl-1 (Q07820 whole entry): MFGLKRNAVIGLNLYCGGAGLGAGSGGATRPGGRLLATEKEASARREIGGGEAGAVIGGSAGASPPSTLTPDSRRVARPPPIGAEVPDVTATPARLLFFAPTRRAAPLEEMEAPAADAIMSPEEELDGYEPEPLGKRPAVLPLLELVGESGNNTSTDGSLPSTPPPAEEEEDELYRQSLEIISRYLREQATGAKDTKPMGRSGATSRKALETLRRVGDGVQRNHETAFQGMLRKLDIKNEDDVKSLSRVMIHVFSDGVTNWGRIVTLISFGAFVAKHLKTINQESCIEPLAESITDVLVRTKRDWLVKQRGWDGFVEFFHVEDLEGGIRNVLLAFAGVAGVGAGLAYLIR

[7] = biological target: Voltage-gated inwardly rectifying potassium channel KCNH2 (Homo sapiens, UniProt Q12809); assay: concentration-dependent hERG rescue from blockers – cell-based, thallium flux, dose response (AID 2121); assay type: ADME
Chain of Voltage-gated inwardly rectifying potassium channel KCNH2 (Q12809 whole entry): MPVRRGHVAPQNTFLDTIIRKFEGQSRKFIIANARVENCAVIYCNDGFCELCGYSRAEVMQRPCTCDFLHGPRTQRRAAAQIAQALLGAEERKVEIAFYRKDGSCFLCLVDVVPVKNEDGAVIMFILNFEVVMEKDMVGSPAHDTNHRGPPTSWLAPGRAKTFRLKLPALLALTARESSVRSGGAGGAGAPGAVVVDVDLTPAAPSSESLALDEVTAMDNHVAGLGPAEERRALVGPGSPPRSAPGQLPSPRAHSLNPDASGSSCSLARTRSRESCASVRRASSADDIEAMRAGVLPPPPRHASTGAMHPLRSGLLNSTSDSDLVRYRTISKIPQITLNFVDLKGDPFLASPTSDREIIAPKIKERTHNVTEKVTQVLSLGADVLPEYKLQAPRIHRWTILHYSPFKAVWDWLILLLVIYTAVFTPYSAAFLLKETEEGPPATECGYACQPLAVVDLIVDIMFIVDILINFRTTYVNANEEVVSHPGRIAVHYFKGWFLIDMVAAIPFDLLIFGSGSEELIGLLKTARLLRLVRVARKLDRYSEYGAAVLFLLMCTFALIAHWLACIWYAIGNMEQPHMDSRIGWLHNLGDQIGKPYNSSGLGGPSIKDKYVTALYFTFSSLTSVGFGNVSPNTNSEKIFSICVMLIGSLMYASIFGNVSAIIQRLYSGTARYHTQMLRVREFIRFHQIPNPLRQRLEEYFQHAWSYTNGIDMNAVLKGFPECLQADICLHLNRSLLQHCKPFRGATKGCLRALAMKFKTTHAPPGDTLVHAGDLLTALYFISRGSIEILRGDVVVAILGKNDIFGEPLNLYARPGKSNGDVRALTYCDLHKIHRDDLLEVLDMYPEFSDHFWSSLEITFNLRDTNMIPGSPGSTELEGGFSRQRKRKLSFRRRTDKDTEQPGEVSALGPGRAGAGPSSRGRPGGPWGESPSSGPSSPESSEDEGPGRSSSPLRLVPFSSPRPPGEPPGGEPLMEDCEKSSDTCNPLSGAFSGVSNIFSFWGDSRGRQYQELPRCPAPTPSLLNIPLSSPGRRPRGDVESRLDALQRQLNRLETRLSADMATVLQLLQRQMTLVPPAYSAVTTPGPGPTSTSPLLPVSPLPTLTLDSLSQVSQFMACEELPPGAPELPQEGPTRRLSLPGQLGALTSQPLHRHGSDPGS

[8] = test system: BJ; assay: cells; assay type: functional, cell-based; settings: Homo sapiens
[9] = test system: Streptococcus sp. 'group A'; assay: Streptococcus pyogenes SK(-)GAS viability under kanamycin – luminescence, BacTiterGlo, confirmation, counter-screen for streptokinase expression inhibitor project, dose response (AID 1900); assay type: functional, organism-based
[10] = activation of miR-122 Renilla sensor silencing – cell-based, Huh7 psiCHECK-miR122, Renilla luciferase, cherry-picked, dose response (AID 651956); assay type: functional;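 further: huh7 hepatoma cells stably carrying a psiCHECK-2 miR-122 sensor plasmid; renilla luciferase signal reporting endogenous miR-122 activity after 48 h compound exposure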
[11] = NIH-3T3 fibroblast cytotoxicity, dose response, cytotoxicity control, cell-based, fluorescence, Alamar Blue, secondary assay (AID 2327); assay type: functional;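 further: NIH-3T3 mouse fibroblasts cultured with fluconazole at 8 µg/mL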
[12] = Trypanosoma cruzi growth suppression in host cells – NIH3T3 host cells, beta-gal luminescence, confirmation (AID 2044); assay type: functional, cell-based;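 further: intracellular parasites grown in NIH/3T3 mouse fibroblasts as host cells; luminescent beta-galactosidase reporter signal from transgenic T. cruzi replicating inside host cells; inhibitors lower the luminescence signal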
[13] = biological target: T3, Rac GTPase-activating protein 1 (Homo sapiens, UniProt Q9H0H5); assay: blockers of MgcRacGAP-driven Rac1 GTP hydrolysis – biochemical, ADP Hunter fluorescence, primary and confirmatory, confirmation (AID 624330); assay type: functional
T3 sequence (Q9H0H5 whole entry): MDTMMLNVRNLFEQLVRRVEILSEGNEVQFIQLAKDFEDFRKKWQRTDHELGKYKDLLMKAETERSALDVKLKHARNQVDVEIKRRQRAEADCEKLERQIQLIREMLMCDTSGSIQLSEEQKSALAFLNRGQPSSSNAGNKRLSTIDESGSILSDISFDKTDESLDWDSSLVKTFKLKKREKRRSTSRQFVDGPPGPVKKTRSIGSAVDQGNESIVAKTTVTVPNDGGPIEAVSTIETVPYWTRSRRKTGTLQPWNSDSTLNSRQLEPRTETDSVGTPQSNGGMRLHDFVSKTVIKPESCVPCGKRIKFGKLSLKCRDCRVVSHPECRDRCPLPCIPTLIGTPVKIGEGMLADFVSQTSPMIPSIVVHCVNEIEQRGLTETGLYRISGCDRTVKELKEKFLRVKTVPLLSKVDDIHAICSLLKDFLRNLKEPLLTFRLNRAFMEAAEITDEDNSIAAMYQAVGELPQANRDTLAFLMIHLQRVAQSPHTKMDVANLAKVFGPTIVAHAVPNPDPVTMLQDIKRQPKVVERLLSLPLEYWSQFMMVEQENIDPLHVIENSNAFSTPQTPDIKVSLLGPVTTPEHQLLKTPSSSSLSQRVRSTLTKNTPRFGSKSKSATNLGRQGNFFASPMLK

[14] = viability loss in THP-1 monocytes – THP-1 cells, cytotoxicity control for Vif-APOBEC3G degradation inhibitor project, dose response (AID 1117359); assay type: functional; settings: THP-1
[15] = biological target: ORF 73 (Human herpesvirus 8, UniProt O40947); assay: KSHV LANA DNA-binding disruption – biochemical, fluorescence polarization, cherry-picked samples, dose response (AID 504725); design: species or system Human gammaherpesvirus 8;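 further: fluorescence polarization of a labeled DNA duplex reporting LANA DNA binding; potency is for inhibitors that block LANA binding to the DNA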
Chain of ORF 73 (O40947 whole entry): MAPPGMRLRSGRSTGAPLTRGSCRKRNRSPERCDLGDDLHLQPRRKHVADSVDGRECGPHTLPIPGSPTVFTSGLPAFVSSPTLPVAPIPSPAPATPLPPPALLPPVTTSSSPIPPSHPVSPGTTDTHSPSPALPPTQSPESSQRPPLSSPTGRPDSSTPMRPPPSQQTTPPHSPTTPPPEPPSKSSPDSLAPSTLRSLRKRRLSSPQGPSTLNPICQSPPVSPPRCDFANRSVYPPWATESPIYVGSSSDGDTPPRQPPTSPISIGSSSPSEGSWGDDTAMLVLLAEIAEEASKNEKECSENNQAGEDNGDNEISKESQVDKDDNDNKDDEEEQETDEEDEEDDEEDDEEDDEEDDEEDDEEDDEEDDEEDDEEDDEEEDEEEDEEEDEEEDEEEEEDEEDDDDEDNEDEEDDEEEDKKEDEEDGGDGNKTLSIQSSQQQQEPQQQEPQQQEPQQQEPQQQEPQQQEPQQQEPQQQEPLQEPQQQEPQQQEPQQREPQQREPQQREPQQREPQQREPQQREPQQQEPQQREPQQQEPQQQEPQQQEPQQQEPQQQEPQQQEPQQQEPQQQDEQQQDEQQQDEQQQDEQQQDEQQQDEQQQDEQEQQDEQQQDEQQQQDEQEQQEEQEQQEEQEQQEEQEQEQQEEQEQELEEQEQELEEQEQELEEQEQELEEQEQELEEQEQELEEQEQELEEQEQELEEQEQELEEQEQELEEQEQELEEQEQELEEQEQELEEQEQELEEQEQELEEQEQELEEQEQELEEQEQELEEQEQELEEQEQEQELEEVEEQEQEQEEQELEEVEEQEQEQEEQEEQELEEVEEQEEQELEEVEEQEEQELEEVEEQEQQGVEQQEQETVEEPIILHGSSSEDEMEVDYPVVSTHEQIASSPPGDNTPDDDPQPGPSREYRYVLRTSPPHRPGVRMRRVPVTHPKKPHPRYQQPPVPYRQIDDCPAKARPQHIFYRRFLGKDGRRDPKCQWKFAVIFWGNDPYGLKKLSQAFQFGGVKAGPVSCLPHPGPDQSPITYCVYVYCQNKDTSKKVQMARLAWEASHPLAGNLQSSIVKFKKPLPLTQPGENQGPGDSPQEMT

[16] = biological target: Small ubiquitin-related modifier 1 (Homo sapiens, UniProt P63165); assay: SUMO1 protein-protein binding blockers, potency – biochemical, FRET, dose response (AID 624383); assay type: functional; settings: read-out: IC50_Mean
Chain of Small ubiquitin-related modifier 1 (P63165 whole entry): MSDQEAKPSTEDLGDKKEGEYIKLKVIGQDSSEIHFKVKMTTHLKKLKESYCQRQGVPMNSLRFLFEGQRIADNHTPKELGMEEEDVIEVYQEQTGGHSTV

COC(CNC(=O)c1ccc2c3c(onc13)-c1ccccc1C2=O)OC
active: IC50 [1] 41.5 µM

COc1ccc(OC)c(Nc2cc3ccccc3c(O)n2)c1
active: IC50 [2] 2.45 µM | AC50 [3] 10.1 µM | IC50 [4] < 1.55 µM

O=C(O)c1ccc(NC2=C/C(=N/S(=O)(=O)c3ccccc3)c3ccccc3C2=O)cc1
active: IC50 [5] > 157 nM | IC50 [2] 1.38 µM | IC50 [6] 1.65 µM | IC50 [4] 0.743 µM

Nc1ccc2c(c1)C(=O)C(=O)c1ccccc1-2
active: EC50 [7] 1.38 µM | EC50 [8] 4.11 µM | IC50 [1] 7.1 µM | EC50 [9] 460 nM | AC50 [10] 10.7 µM

CCCC(=O)NC(c1ccccc1OC)c1ccc2cccnc2c1O (stereo not given)
active: EC50 [11] 28.7 µM | EC50 [12] 532 nM

COc1cc(-c2ccc(Nc3ccccc3C(=O)O)c(OC)c2)ccc1Nc1ccccc1C(=O)O
active: IC50 [13] 41.4 µM | CC50 [14] > 40 µM | AC50 [15] 78.9 µM | IC50 [6] 1.52 µM | IC50 [16] 3.9 µM
